The values below come from patent US6423737B1, “Benzamidoxime prodrugs as antipneumocystic agents” (The University of North Carolina at Chapel Hill, priority 1995, dated 2002).

Entries after “also recorded” stand apart in the source; their conditions may differ. Bounds are passed on as bounds.

Data set [1] concerns Pneumocystis carinii. Kind of data set: Anti-P. carinii activity in immunosuppressed rat model (lung cyst counts). The conditions noted are these: for % saline, ORAL DOSING: oral by gavage daily for 14 days @33 μmol/kg body weight; for activity on oral administration, furan series (in words): orally by gavage; for anti-P. carinii activity when given orally (in words): Formula I series, orally by gavage once daily for 14 days. The data set is classed as in vivo, Sprague-Dawley rats. On the procedure: The activity of the compounds of Formula I against P. carinii was carried out according to an established method. See Tidwell, R. R., et al., J. Protozool. […] Agents Chemother. […] Agents Chemother. […] Briefly, male Sprague-Dawley rats (barrier raised, not certified virus-free) weighing 150-200 g each, were obtained (Hilltop Laboratories, Scottsdale, Pa.). Immediately upon arrival, the animals were caged individually and begun on a low protein (8%) diet and on drinking water containing tetracycline (0.5 mg/mL) and dexamethasone (1.0 μ/mL). This regimen was continued for eight weeks. At the beginning of the seventh week, animals were divided into groups of 8 or more, and the test compounds were administered for 14 days. Saline and pentamidine-treated groups were included as controls.
Animals were sacrificed at the end of the eighth week by chloroform inhalation. The left lung was weighed, ground through a No. 60 wire mesh screen, and suspended 1:10 (wt/vol) in 10 mM β-mercaptoethanol-Hanks' balanced salts solution (HBSS) without cations. Slides were prepared by spotting 5 μL of lung homogenate diluted 1:10 in HBSS with β-mercaptoethanol and allowed to air dry. The slides were stained with cresyl violet, and the cysts were counted by a blinded protocol. The number of cysts per gram of original lung tissue was calculated, and the groups were reported as the percentages of saline-treated controls.
The anti-P. carinii value for each compound is expressed as the percent of cysts in the treatment group as compared to the saline control group. Values are also compared to a positive control group consisting of animals treated intravenously with pentamidine.

A short description of data set [2]: Acute toxicity of single doses in normal rats. The conditions noted are these: normal rats; for time after injection to recovery / persistence of symptoms: single IV 20 μmol/kg; for relative acute toxicity among the diamidines: single IV injection. It is filed as in vivo.
Data set [3] deals with Pneumocystis carinii. As to conditions: cited from earlier work; for mean histological score, IV DOSING: tail vein injection daily for 14 days @ 10 mg/kg, scores range from 0.5 (low infection) to 4.0; for intravenous activity of diamidines (in words): previously evaluated by a different score method.
Data set [4] can be described thus: Subjective scale of toxicity and tolerance during treatment in the immunosuppressed rat model. The conditions noted are these: for Toxicity, IV DOSING / Toxicity, ORAL DOSING: subjective scale; for acute toxicity generally noted for diamidines, on intravenous administration: immunosuppressed rat model.
From the text: ^b subjective scale of toxicity. […] In general, the larger the value the more severe the toxicity, with values greater than 2 indicating the death of some animals
Where [5] appears, read: 22.0 μmol/kg/day, values greater than 2 indicate death of some animals.

`N=C(N)c1ccc(OCCCCCOc2ccc(C(=N)N)cc2)cc1` [Compound 2, 1,5-bis(4′-amidinophenoxy)pentane, reference compound]: the “% saline, ORAL DOSING” value in data set [1] (Table 2) and in data set [1] (Table 3) was 133.09 % saline throughout. In addition, the “% saline, IV DOSING” value in data set [1] (Table 2, tail vein injection daily for 14 days at 22 mg/kg body weight) was determined as 0.87 % saline. In addition, the “observed acute toxicity after single intravenous injection” value was “appeared hypotensive, with rapid paling of extremities, hypoactivity and dyspnea, which progressed to slight cyanosis of extremities” in data set [2] (20 μmol/kg); “immediate sever hind limb contractions, increased salivation, dyspnea, initial paling of extremities which progressed to marked cyanosis and profound hypoactivity” in data set [2] (40 μmol/kg). Besides, in data set [2], the “time after injection to recovery / persistence of symptoms” value is no more than 5 min. For the same molecule, in data set [3], the “mean histological score, IV DOSING” value was 1.1.
For the molecule `CON=C(N)c1ccc(-c2ccc(-c3ccc(C(N)=NOC)cc3)o2)cc1` [Compound 11, 2,5-bis-[4-amidinophenyl]furanbis-O-methylamidoxime], the “activity on oral administration, furan series (in words)” value in data set [1] (immunosuppressed rat model) is “effective; also recorded: more effective than the bis-amidoxime 10”. The “drug uptake on oral dosage (suggested by the values for the cyst counts)” value in data set [1] (oral dosage, immunosuppressed rat model) is given as “superior to that of the parent compound 9”. For the same molecule, the “Toxicity, IV DOSING” value in data set [4] (setting [5]) came to 0. Moreover, the “tolerance at the injection site” value in data set [4] (intravenous, 22.0 μmol/kg/day) is given as “well-tolerated”. In addition, in data set [4] (intravenous), the “acute toxicity generally noted for diamidines, on intravenous administration” value was “absent”. Further, the “Toxicity, ORAL DOSING” value in data set [4] (5.5 μmol/kg/day), in data set [4] (11.0 μmol/kg/day), in data set [4] (22.0 μmol/kg/day) and in data set [4] (33.0 μmol/kg/day) was 0 throughout.
For the molecule `NC(=NO)c1ccc(-c2ccc(-c3ccc(C(N)=NO)cc3)o2)cc1` [Compound 10, 2,5-bis-[4-amidinophenyl]furanbis-amidoxime], in data set [1] (immunosuppressed rat model), the “activity on oral administration, furan series (in words)” value was “effective”. Further, in data set [1] (rat, in vivo, po), the “drug uptake on oral dosage (suggested by the values for the cyst counts)” value was “superior to that of the parent compound 9”. The “Toxicity, IV DOSING” value in data set [4] (0.3 μmol/kg/day) was 0; in data set [4] (2.7 μmol/kg/day), 0; in data set [4] (5.5 μmol/kg/day), “+1”; in data set [4] (11.0 μmol/kg/day), “+1”; in data set [4] (setting [5]) it was “+1”. The “inflammation and necrosis at the injection site” value in data set [4] (intravenous, 5.5 μmol/day) is “considerable inflammation and necrosis of the tail vein at the injection site”. For the same molecule, the “acute toxicity generally noted for diamidines, on intravenous administration” value in data set [4] (intravenous) was “absent”. Further, the “Toxicity, ORAL DOSING” value in data set [4] (5.5 μmol/kg/day), in data set [4] (11.0 μmol/kg/day) and in data set [4] (33.0 μmol/kg/day) was 0 throughout.
As to `N=C(N)c1ccc(OCCCOc2ccc(C(=N)N)cc2)cc1` [Compound 6, 1,3-bis(4′-amidinophenoxy)propane], in data set [1], the “anti-P. carinii activity when given orally (in words)” value (from here on “anti-P. carinii activity”) is given as “reduced or no anti-P. carinii activity”. The “relative acute toxicity among the diamidines” value in data set [2] is on record as “less acutely toxic than pentamidine”. Besides, in data set [3], the “intravenous activity of diamidines (in words)” value (shortened to “intravenous activity”) is recorded as “previously shown to have intravenous activity” and the “mean histological score, IV DOSING” value is given as 0.9.
Consider `CCON=C(N)c1ccc(-c2ccc(-c3ccc(C(N)=NOCC)cc3)o2)cc1` [Compound 12, 2,5-bis-[4-amidinophenyl]furanbis-O-ethylamidoxime], for which, in data set [4] (setting [5]), the “Toxicity, IV DOSING” value is “+1”. In addition, in data set [4] (33.0 μmol/kg/day), the “Toxicity, ORAL DOSING” value was 0.
Regarding `COc1cc(C(=N)N)ccc1OCCCOc1ccc(C(=N)N)cc1OC` [Compound 8, 1,3-bis(2′-methoxy-4′-amidinophenoxy)propane, reference compound], in data set [1], the “anti-P. carinii activity” value is “significant oral activity”. Besides, the “observed acute toxicity after single intravenous injection” value in data set [2] (10 μmol/kg) is on record as “perceptible hypoactivity”. Further, in data set [2], the “time after injection to recovery / persistence of symptoms” value was greater than 15 min and the “relative acute toxicity among the diamidines” value is listed as “even more acutely toxic than the other two diamidines tested”. Besides, the “intravenous activity” value in data set [3] is recorded as “previously shown to have intravenous activity”.
In the case of `N=C(N)c1ccc(OCCCCOc2ccc(C(=N)N)cc2)cc1` [Compound 4, 1,4-bis(4′-amidinophenoxy)butane, reference compound], the “anti-P. carinii activity” value in data set [1] is reported as “reduced or no anti-P. carinii activity”. The “% saline, ORAL DOSING” value in data set [1] (Table 3) was 46.03 % saline. Besides, in data set [3], the “intravenous activity” value was “previously shown to have intravenous activity” and the “mean histological score, IV DOSING” value is recorded as 0.5.
